Measurements from patent publication US11225653B2, “Methods and compounds for reducing threonyl-tRNA synthetase activity” (University of Vermont and State Agricultural College, priority 2012, dated 2022).
“Also recorded” adds a separate entry of the source.

Experiments:
[1] = test system: chorioallantoic membrane (CAM); assay: Chick chorioallantoic membrane (CAM) assay; format: in vivo, chicken; conditions: purified protein applied daily to sponge, scored over 72 h
Description: Chick Chorioallantoic Membrane Assay-Fertilized chicken eggs (Sunrise Farms, Catskill, N.Y.) day 1-2 post-laying were incubated in a humidified incubator at 37° C. for 72 h. Cleaned eggs were cracked and plated in a sterile 10 cm^2 tissue culture-treated dish and incubated at 37° C. for another 7 days. On developmental day 10, 1 mm^3 sterile gelatin sponge pieces (Surgifoam®; Johnson & Johnson Wound Management, Somerville, N.J.) were placed within the outer one-third of the membrane between large vessels. 40 μg/ml human bFGF and 2 μg/mL human VEGF were used as pro-angiogenic control compounds; 100 μg/mL retinoic acid (Sigma-Aldrich, St. Louis, Mo.) diluted in phosphate-buffered saline (PBS) was used as an angiostatic control. All compounds were applied in 10 μl to the CAM every 24 h for 72 h. Images were taken using a Leica MZ6 stereomicroscope every 24 h. Compounds were scored according to a modified version of Intensity Scoring as previously described (Ribatti, Nico et al. 2006). Briefly, each experimental condition was given a blinded score from 0-5 based on the change in the extent of vessel convergence and formation in proximity to the sponge from day 0 to day 3. Total score is averaged individual experimental condition scores from at least 15 replicates.
Fertilized chicken embryos were cultured ex-ova and, starting at developmental day 10, agents were applied daily to gelfoam sponges on the CAM. Images were recorded daily over 72 h and scored blindly according to a modified version Intensity Scoring as previously described (Ribatti, Nico et al. 2006). Additional details regarding methods are provided in the Methods and Materials section of Example 1.

[2] = target: T1, human LARS (Homo sapiens, UniProt Q9P2J5); assay: LARS steady state ATPase activity; format: biochemical; conditions: 1 μM human LARS
T1 construct: His6 (N); made in house; host or cells: E. coli, plasmid pPROEX hTb-LARS
T1 sequence (Q9P2J5 whole entry): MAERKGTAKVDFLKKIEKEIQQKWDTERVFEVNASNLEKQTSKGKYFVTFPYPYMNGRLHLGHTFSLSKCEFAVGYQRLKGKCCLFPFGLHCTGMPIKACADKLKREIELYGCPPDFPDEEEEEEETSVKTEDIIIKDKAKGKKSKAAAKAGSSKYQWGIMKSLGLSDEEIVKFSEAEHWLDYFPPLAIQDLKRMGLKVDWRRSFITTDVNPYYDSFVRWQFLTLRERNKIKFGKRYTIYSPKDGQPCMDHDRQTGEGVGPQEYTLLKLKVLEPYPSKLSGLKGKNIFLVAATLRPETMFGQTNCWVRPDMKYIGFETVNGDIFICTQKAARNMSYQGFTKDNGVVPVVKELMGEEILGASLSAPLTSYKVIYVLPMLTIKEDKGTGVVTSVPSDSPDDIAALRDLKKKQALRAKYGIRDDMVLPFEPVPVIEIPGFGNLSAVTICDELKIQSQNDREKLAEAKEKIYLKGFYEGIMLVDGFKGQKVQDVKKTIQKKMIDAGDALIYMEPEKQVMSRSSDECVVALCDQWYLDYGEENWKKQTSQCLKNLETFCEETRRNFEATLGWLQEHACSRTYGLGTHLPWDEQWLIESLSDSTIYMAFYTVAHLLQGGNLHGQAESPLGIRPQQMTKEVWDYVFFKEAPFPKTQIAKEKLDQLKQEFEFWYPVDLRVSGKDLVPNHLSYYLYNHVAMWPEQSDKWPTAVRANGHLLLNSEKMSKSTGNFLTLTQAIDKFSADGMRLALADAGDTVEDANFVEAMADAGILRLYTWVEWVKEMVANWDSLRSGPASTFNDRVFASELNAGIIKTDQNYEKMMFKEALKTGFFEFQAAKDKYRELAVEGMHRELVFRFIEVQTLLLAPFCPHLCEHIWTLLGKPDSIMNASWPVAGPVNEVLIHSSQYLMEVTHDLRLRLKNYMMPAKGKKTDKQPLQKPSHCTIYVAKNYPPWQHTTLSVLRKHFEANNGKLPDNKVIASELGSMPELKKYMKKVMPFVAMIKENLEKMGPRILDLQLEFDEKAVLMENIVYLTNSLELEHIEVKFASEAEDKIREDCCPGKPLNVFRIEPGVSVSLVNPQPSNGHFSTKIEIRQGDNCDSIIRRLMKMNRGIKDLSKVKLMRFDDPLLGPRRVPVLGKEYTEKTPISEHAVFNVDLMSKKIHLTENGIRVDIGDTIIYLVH
Description: LARS steady state ATPase activity was determined using the same procedure as for TARS aminoacylation with the following modifications. […] ATP (PerkinElmer, Waltham, Mass.) was added. Reactions were incubated for 3 minutes at 37° C. and initiated with the addition of 1 μM human LARS. At various time points 5 μl aliquots were quenched in 45 μl of 500 mM sodium acetate and 0.1% sodium dodecyl sulfate. For each sample, 1 μl was spotted onto a CCM cellulose PEI F plates (EMD) and resolved via thin-layer chromatography in 0.75 M potassium phosphate buffer mobile phase.

LARS: N-terminal His6-tagged human leucyl tRNA synthetase
vessel formation / vascularization on the CAM after applied protein [1]: no observable effect on vascularization; also recorded: has no effect on angiogenesis | enzyme activity as conversion of 32P-ATP to AMP [2]: exhibits enzyme activity
